17 compounds from the supplement of paper PMC7108870 can be followed below.

The subject of test [1] is HEK293sieSTAT3(Y640F). Kind of test: drug sensitivity score (DSS), cytotoxicity CellTox Green (DSS (dimensionless)); higher = more cytotoxic; extreme values may be limits of the assay. The following applies: 72 h; STAT3 variant: Y640F (constitutively active). An outline of the steps:
(§1)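 HEK293 cells with a STAT3-dependent luciferase reporter, overexpressing either wild-type or mutant STAT3, were dispensed (20 μl at 100,000 cells/ml) into 384-well plates holding compounds acoustically pre-plated at 5 concentrations in 10-fold dilutions. The plates were kept for 72 hours at 37°C and 5% CO2, then CellTox Green fluorescence (485/520 nm) followed by CellTiter-Glo luminescence was read on a PHERAstar FS. Breeze was used to compute a drug sensitivity score from the dose-response curve area after normalisation to negative and positive control wells, and each value comes from one representative of two experiments.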

For test [2], the system named is HEK293sieSTAT3(wt). The description is as above. Conditions: 72 h; STAT3 variant: wild type. In a few lines:
as §1

In test [3] the test system is HEK293sieSTAT3(Y640F). In words: drug sensitivity score (DSS), viability CellTiter-Glo (DSS (dimensionless)); higher = more growth inhibition; extreme values may be limits of the assay. Conditions: 72 h; STAT3 variant: Y640F (constitutively active). In a few lines: as §1
In test [4] the test system is HEK293sieSTAT3(wt). The test is described as above. The following applies: 72 h; STAT3 variant: wild type. In a few lines: as §1

As for `C[C@@]1(C(=O)Nc2ccc(F)nc2)CCCN1c1nc(Nc2cc(C3CC3)n[nH]2)c2cccn2n1` (top concentration tested 10000 nM), the drug sensitivity score in test [1] is 0.48; in test [2], 5.21; in test [3], 17.4; in test [4] it was 15.8.

On to `O[C@H]1CC[C@H](Nc2ncc3nc(Nc4c(F)cc(F)cc4F)n([C@H]4CCOC4)c3n2)CC1` [Tanzisertib] (top concentration tested 10000 nM), for which the drug sensitivity score in test [1] stood at 0; in test [2], 0; in test [3], 0; in test [4], 2.

On to `COc1cc2nccc(Oc3ccc(NC(=O)NC4CC4)c(Cl)c3)c2cc1C(N)=O` [Lenvatinib] (top concentration tested 2500 nM), for which the drug sensitivity score in test [1] stood at 0; in test [2], 0; in test [3], 2.04; in test [4], 2.2.

As to `N.N.[Cl][Pt][Cl]` [Cisplatin] (top concentration tested 100000 nM), the drug sensitivity score in test [1] was found to be 5.83; in test [2], 6.89; in test [3], 19.6; in test [4] it was 18.9.

As to `O=C(Nc1ccc(OC(F)(F)F)cc1)c1sccc1NCc1ccnc2ccccc12` [OSI-930] (top concentration tested 2500 nM), the drug sensitivity score in test [1] was found to be 0; in test [2] it was 0; in test [3], 0.46; in test [4], 1.31.

As for `CNC(=O)c1cc(Oc2ccc(NC(=O)Nc3ccc(Cl)c(C(F)(F)F)c3)c(F)c2)ccn1` [Regorafenib] (top concentration tested 10000 nM), the drug sensitivity score in test [1] was 0; in test [2], 0; in test [3], 6.11; in test [4], 6.43.

For the compound `CCN1CCN(Cc2ccc(Nc3ncc(F)c(-c4cc(F)c5nc(C)n(C(C)C)c5c4)n3)nc2)CC1` [Abemaciclib] (top concentration tested 2500 nM), the drug sensitivity score in test [1] was 0; in test [2] it was 0; in test [3], 0.98; in test [4], 0.4.

As to `C=CC(=O)Nc1cccc(Nc2nc(Nc3ccc(N4CCN(C(C)=O)CC4)cc3OC)ncc2C(F)(F)F)c1` [Rociletinib] (top concentration tested 10000 nM), the drug sensitivity score came to 0.23 in test [1], 4.1 in test [2], 8.18 in test [3] and 7.99 in test [4].

Turning to `Nc1nc(Cl)nc2c1ncn2[C@H]1C[C@H](O)[C@@H](CO)O1` [Cladribine] (top concentration tested 1000 nM), the drug sensitivity score in test [1] amounted to 0; in test [2] it was 0.33; in test [3], 1.45; in test [4], 6.32.

On to `CCCc1cc(C)[nH]c(=O)c1CNC(=O)c1cc(-c2ccnc(N3CCN(C)CC3)c2)cc2c1cnn2C(C)C` [GSK343] (top concentration tested 10000 nM), for which the drug sensitivity score in test [1] amounted to 5.89; in test [2], 6.89; in test [3], 6.55; in test [4], 7.6.

`C=CC[C@@H]1/C=C(\C)C[C@H](C)C[C@H](OC)[C@H]2O[C@@](O)(C(=O)C(=O)N3CCCC[C@H]3C(=O)O[C@H](/C(C)=C/[C@@H]3CC[C@@H](O)[C@H](OC)C3)[C@H](C)[C@@H](O)CC1=O)[C@H](C)C[C@@H]2OC` [Tacrolimus] (top concentration tested 10000 nM): the drug sensitivity score was found to be 0 in test [1], 0 in test [2], 0.22 in test [3] and 0.73 in test [4].

In the case of `O=C(Nc1cccc(C(F)(F)F)c1)Nc1cc(S(=O)(=O)NC2CC2)ccc1-c1ccsc1` [AGI-6780] (top concentration tested 10000 nM), the drug sensitivity score in test [1] turned out to be 0; in test [2], 1.62; in test [3] it was 1.05; in test [4], 2.88.

As to `COc1ccc(Cn2ccc3ccc(C(=O)NO)cc32)cc1` (top concentration tested 10000 nM), the drug sensitivity score was 0 in test [1], 0 in test [2], 2.79 in test [3] and 3.02 in test [4].

As to `N#CC[C@H](C1CCCC1)n1cc(-c2ncnc3[nH]ccc23)cn1` [Ruxolitinib] (top concentration tested 10000 nM), the drug sensitivity score came to 0.39 in test [1], 0.1 in test [2], 2.89 in test [3] and 3.2 in test [4].

For the compound `Cn1c(CCCC(=O)O)nc2cc(N(CCCl)CCCl)ccc21` [Bendamustine] (top concentration tested 10000 nM), the drug sensitivity score was 0 in test [1], 0 in test [2], 0.53 in test [3] and 3.94 in test [4].

Consider `CN(C)CCOc1ccc(/C(=C(/CCCl)c2ccccc2)c2ccccc2)cc1` [Toremifene] (top concentration tested 10000 nM), for which the drug sensitivity score was found to be 2.32 in test [1], 6.99 in test [2], 2.66 in test [3] and 5.41 in test [4].

Consider `CC1CCC(n2c3cnccc3c3cnc(Nc4ccc5c(n4)CCN(C(=O)CO)C5)nc32)CC1` (stereo not drawn) [AMG-925] (top concentration tested 1000 nM), for which the drug sensitivity score in test [1] was 0; in test [2], 2.08; in test [3] it was 5.44; in test [4] it was 5.61.
